Laboratory results published in ChEMBL document CHEMBL3272353, “4-Substituted semicarbazones of mono- and dichlorobenzaldehydes as antihypertensive agents” (J Med Chem, 1977).
Calls of active or inactive are those of the source. The calls are words filed in the database; no cut-off is given here.

What was measured:
[1] = test system: Rattus norvegicus; assay: Antihypertensive activity in spontaneously hypertensive rat assessed as reduction in mean arterial blood pressure at 100 mg/kg, po administered as two dose at 24 hrs interval measured 4 hrs post second dose relative to control; assay type: functional, Artery; set-up: scale not given: the % may be the effect or the level left
[2] = test system: Rattus norvegicus; assay: Antihypertensive activity in spontaneously hypertensive rat assessed as reduction in mean arterial blood pressure at 25 mg/kg, po administered as two dose at 24 hrs interval measured 4 hrs post second dose relative to control; assay type: functional, Artery; set-up: scale not given: the % may be the effect or the level left
[3] = test system: Canis familiaris; assay: Antihypertensive activity in normotensive dog assessed as reduction in mean arterial blood pressure at 5 to 10 mg/kg, po administered in gelatin capsules; assay type: functional, organism-based; conditions: Canis lupus familiaris, Artery
[4] = test system: Canis familiaris; assay: Toxicity in dog assessed ataxia at 10 mg/kg, po administered in gelatin capsules; assay type: organism-based, Canis lupus familiaris; set-up: dose 10 mg/kg, route oral; conditions: in vivo
[5] = test system: Rattus norvegicus; assay: Antihypertensive activity in spontaneously hypertensive rat assessed as reduction in mean arterial blood pressure at 10 mg/kg, po administered as two dose at 24 hrs interval measured 4 hrs post second dose relative to control; assay type: functional, Artery; set-up: scale not given: the % may be the effect or the level left
[6] = test system: Rattus norvegicus; assay: Antihypertensive activity in spontaneously hypertensive rat assessed as reduction in mean arterial blood pressure at 5 mg/kg, po administered as two dose at 24 hrs interval measured 4 hrs post second dose relative to control; assay type: functional, Artery; set-up: scale not given: the % may be the effect or the level left
[7] = test system: Rattus norvegicus; assay: Toxicity in spontaneously hypertensive rat assessed as adverse effect at 5 to 10 mg/kg, po administered as two dose at 24 hrs interval; assay type: organism-based; set-up: dose 5-10 mg/kg, route oral; conditions: in vivo
[8] = test system: Rattus norvegicus; assay: Toxicity in spontaneously hypertensive rat assessed as general depression of cardiovascular function at 100 mg/kg, po administered as two dose at 24 hrs interval; assay type: organism-based, Heart; set-up: dose 100 mg/kg, route oral; conditions: in vivo

SMILES: O=C(N/N=C/c1c(Cl)cccc1Cl)N1CCOCC1
- Activity [1]: 13%

SMILES: N=C(N)N/N=C/c1c(Cl)cccc1Cl [GUANABENZ]
- Activity [2]: 26%

SMILES: CN(C)C(=O)N/N=C/c1c(Cl)cccc1Cl
- Activity [3]: inactive
- Activity [4]: Toxic
- Activity [5]: 46%
- Activity [6]: 31%
- Activity [7]: Non-toxic
- Activity [8]: Toxic

SMILES: CNC(=O)N/N=C/c1c(Cl)cccc1Cl
- Activity [1]: 32%

SMILES: CN(C)C(=O)N/N=C/c1ccc(Cl)cc1
- Activity [1]: 16%
